Data reported in patent publication US20250144166A1, “COMPOSITIONS AND METHODS FOR INHIBITING RHO KINASE” (INTERLUDE BIOPHARMA CO., priority 2022, published 2025).
Entries after “also recorded” stand apart in the source; their conditions may differ. Read-outs that look alike come from different tables or passages of the source.

Columns and labels:
C2BBe1 cells [1] = assay: TEER in A/R-injured C2BBe1 cells with MLCK and ROCK inhibitors with or without LA; assay type: cell-based, human; details: 10 mM LA, 1 μM Y-27632 dihydrochloride, 400 μM Peptide 18; A/R injury; FIG. 7
Experimental: To evaluate barrier function, the TEER was measured in A/R-injured C2BBe1 cells treated with or without LA.

C2BBe1 intestinal cells = details: 10 mM LA; A/R injury; compared to non-treated A/R injured cells
Experimental: Specifically, to evaluate barrier function, transepithelial electrical resistance (TEER) was measured in anoxia/reoxygenation (A/R)-injured C2BBe1 (Caco-2 brush border-expressing Caco-2) cells treated with or without larazotide acetate (LA). Monolayers of C2BBe1 were treated with LA (0.001, 0.1, 1, and 10 mM) and were subjected to anoxia for 2 hours followed by reoxygenation with 21% O2. To generate A/R injury, C2BBe1 cells were placed in a modular incubator chamber (Billups-Rothenberg, San Diego, CA) and flushed with 95% N2/5% CO2 for 5 minutes. The modular chamber was then sealed airtight and placed in an incubator for 2 hours. After 2 hours, the cells were removed from the modular incubator chamber and placed in a 21% O2 normal environment. TEER was measured to assess barrier function during A/R injury and recovery. The TEER was measured using a Chopstick Electrode Set (WPI, LLC, Sarasota, FL) on the basal and apical sides of a monolayer and attached to an Epithelial Volt Ohm Meter2 (WPI, LLC, Sarasota, FL).

ZO-1, occludin, F-actin = system: ZO-1, occludin, F-actin
Experimental: (§1) Specifically, the distribution of tight junction proteins and actin structure was evaluated using western blots on membrane and cytosol fractions and immunofluorescence microscope analysis. Mem-PER Eukaryotic Membrane Protein Extraction Reagent Kit (Thermo Scientific) was used to fractionate membrane and cytosolic compartment. The extracted proteins were blotted with primary antibodies anti-ZO-1 and anti-occludin (Invitrogen). The cold methanol fixed monolayers were stained with primary antibodies (ZO-1 and occludin) and phalloidin (F-actin) for immunofluorescence microscope analysis. The stained monolayers were examined with an Olympus IX83 Inverted Motorized Microscope with cellSens software (Olympus, Tokyo, Japan). pMLC-2/MLC-2 expression was evaluated using western blot analysis with primary antibodies for pMLC-2 and MLC-2 (CST, Danvers, MA).

tight junction proteins = details: 10 mM LA
Experimental: as §1

C2BBe1 = system: C2BBe1
Experimental: Specifically, monolayers of C2BBe1 were treated with 10 mM LA and were subjected to anoxia for 2 hours followed by reoxygenation with 21% O2 for 1 hour. Next-generation RNA sequencing and biostatistical analyses were employed to assess cellular regulatory pathways.

C2BBe1 cells [2] = details: 10 mM LA
Experimental: For barrier function analysis, TEER was measured in monolayers of C2BBe1 cells treated with or without 10 mM LA. TEER was measured using a Chopstick Electrode Set (WPI, LLC, Sarasota, FL) on the basal and apical sides of a monolayer and attached to an Epithelial Volt Ohm Meter2 (WPI, LLC, Sarasota, FL).

C2BBe1 cells [3] = details: 10 mM LA; regular media; 48 hours
Experimental: This experiment evaluated the role of LA in proliferation and migration. Specifically, proliferation of non-treated or LA-treated (10 mM) C2BBe1 cells was evaluated by the CCK-8 assay kit (Dojindo Molecular Technologies, Rockville, MD) according to the manufacturer's instructions. 10 mM LA was treated every other day to cells seeded in 96-well culture plates. Viable cells were evaluated with the CCK-8 Assay Kit for five consecutive days. Migration was assessed by seeding C2BBe1 cells in 3 well culture-inserts (ibidi GmbH, Gräfelfing, Germany) and removing the inserts after reaching confluence to create a “wound” in the cell monolayer. 10 mM LA was added to serum-free and regular media to assess migration and proliferation, respectively. Images were captured at 0, 4, 8, 24, and 48 hours with Axio Vert A1 microscope (Carl Zeiss AG, Oberkochen, Germany) and closing of the wound was analyzed by measuring migration distance with ImageJ software.

[4] = anoxic cells vs. exposed to LA for 3 h
[5] = control vs. exposed to LA for 3 h

## O=S(=O)(c1cccc2cnccc12)N1CCCNCC1 [Fasudil]
C2BBe1 cells [1]
  TEER compared to non-treated A/R injured cells: increased TEER

## larazotide acetate
C2BBe1 intestinal cells
  TEER: significantly (p<0.001) increases the TEER; also recorded: significantly increased (p<0.001)
ZO-1, occludin, F-actin; 10 mM LA, FIG. 4
  F-actin structure during A/R injury: protected
ZO-1, occludin, F-actin; 1-hour reoxygenation, versus non-treated anoxic injured cells
  localization of tight junction and cytoskeleton proteins (ZO-1, occludin, F-actin) by immunofluorescence: revealed well-organized tight junction proteins and F-actin
Tight junction proteins; 1-hour reoxygenation, compared to non-treated anoxic injured cells
  occludin in the membrane fraction (immunoblotting): significantly (p<0.05) increased in the membrane
Tight junction proteins; FIG. 3
  disruption of tight junction proteins during A/R injury: prevented disruption of tight junction proteins
C2BBe1; LA-treated cells compared to non-treated cells
  translational processes (GO analysis): significantly increased
C2BBe1; [4]
  Expression compared to control: AMOTL2: Down
  Expression compared to control: EGR1: Down
  Expression compared to control: HES1: Down
  Expression compared to control: HSPH1: Down
  Expression compared to control: JPH2: Up
  Expression compared to control: NDRG1: Up
  Expression compared to control: PFKFB4: Up
  Expression compared to control: SAMD5: Down
  Expression compared to control: SLC2A3: Up
  Expression compared to control: TNS1: Up
C2BBe1; cells treated with LA, FIG. 10
  Ras/Rho GTPase-binding and protein serine/threonine kinase activity (GO analysis): differentially expressed
C2BBe1; [5]
  Expression compared to control: CEBPB: Up
  Expression compared to control: DDIT4: Up
  Expression compared to control: EGR1: Up
  Expression compared to control: H1F0: Up
  Expression compared to control: ID2: Up
  Expression compared to control: IGFBP4: Down
  Expression compared to control: ITGA2: Down
  Expression compared to control: MAT2A: Down
  Expression compared to control: SAMD5: Down
  Expression compared to control: SYTL2: Down
C2BBe1 cells [2]; compared to non-treated A/R injured cells at 1 hour after treatment (FIG. 12 legend)
  TEER: significantly increased TEER
C2BBe1 cells [2]; normal conditions, FIG. 12
  TEER: increased TEER
C2BBe1 cells [3]
  wound healing: significantly increased wound healing
